In patent publication US20210052600A1, “THERAPEUTIC AGENTS FOR STRESS URINARY INCONTINENCE AND INCOTINENCE OF FECES” (Takeda Pharmaceutical Company Limited, priority 2017, published 2021):
Where a name gives a salt, the structure may show the parent alone. Read-outs that look alike come from different tables or passages of the source.

Legend:
[1] = test system: urethral resistance; experiment: Rat urethral resistance (LPP) measured by high speed infusion of saline into the bladder; assay type: in vivo; conditions: mean ± SEM; for LPP Post: 30 minutes after administration; for LPP Increase: Post minus Pre; for LPP Pre: before administration
Excerpt: The rats were anesthetized with isoflurane. Their spinal cord was transected at the T8-T9 (the eighth thoracic cord—the ninth thoracic cord) level. After opening of the bladder dome, two polyethylene tubes (PE-100) were inserted into the bladder. The incised portion of the bladder was closed with sutures, and the other incisions were also closed. The rats were placed in Bollman cages. The catheter for intravesical pressure measurement was connected to a pressure transducer, while the catheter for saline filling was connected to a syringe filled with Evans Blue-dyed saline. Change in intravesical pressure was recorded using the pressure transducer via an electric signal amplifier and an analog-to-digital converter. After recovery of the animals from anesthesia, the intravesical pressure measurement was started, and saline was infused at a speed of 0.1 mL/sec into the bladder using an infusion pump. The infusion was stopped when the leakage of the saline from the urethral orifice was observed. Immediately thereafter, the bladder was emptied by releasing the pressure. In this operation, the peak of recorded intravesical pressure during the saline infusion was used as LPP in this Example. This measurement was repeated, and the average LPP from the last three measurements was used as the LPP value of the trial. The mean from 2 such trials was used as a Pre value. 0.5% MC was used as the vehicle. […] The difference in LPP from the Pre value (increased amount of LPP) was calculated. Regarding change in LPP before and after drug administration, the differences between the mean values of the drug-treated and vehicle-treated groups were analyzed by the one-tailed Williams' test.

[2] = test system: urethral resistance; experiment: Urethral resistance (LPP) during intravesical pressure rise by electrical stimulation of rat abdominal muscle; assay type: in vivo; conditions: mean ± SEM; for LPP Post: 30 minutes after administration; for LPP Increase: Post minus Pre; for LPP Pre: before administration
Procedure: Fifty six female rats of Sprague-Dawley strain (hereinafter, referred to as “SD strain”) were used. The rats were anesthetized with urethane, and their spinal cord was transected at the T8-T9 (the eighth thoracic cord—the ninth thoracic cord) level for the elimination of reflex voiding. Isoflurane inhalation was added, if necessary. After opening of the abdomen, a catheter (PE-100) was inserted into the bladder. In order to secure reduced urethral resistance, unilateral nerve to iliococcygeus and pubococcygeus muscles was transected. For intraduodenal administration, another catheter (PE-50) was inserted into the duodenum in advance. The abdominal muscle and skin were each closed with sutures. Two (right and left) sites of abdominal skin near the diaphragm were cut to expose abdominal muscle. The bladder was emptied through the catheter, followed by the injection of 0.2 to 0.3 mL of 0.1% Evans blue solution. Change in intravesical pressure was recorded using the bladder catheter via a pressure transducer, an electric signal amplifier, and an analog-to-digital converter. While change in intravesical pressure was recorded, the presence or absence of fluid leakage from the urethral orifice was observed under the electrical stimulation of the exposed abdominal muscle using an electrical stimulator and an isolator. […] The peak of the intravesical pressure during the stimulation of the abdominal muscle was measured, and the lowest pressure at which the fluid leakage was observed among the trials was defined as leak point pressure (hereinafter, referred to as “LPP”) for the electrical abdominal muscle stimulation method and used as an index for urethral resistance. Each drug was evaluated for its effect by comparing LPP before drug administration with that after drug administration. […] The drugs were suspended in 0.5% methylcellulose solution (MC). […] LPP was measured again 30 minutes after administration. Regarding change in LPP before and after drug administration, the differences between the mean values of the drug-treated and vehicle groups were analyzed by the one-tailed Williams' test.

[3] = Comparison of plasma concentrations for urethra-closing effect and anti-obesity effect (analysis of Examples 1-9 and literature)
[4] = test system: urethra-closing response; experiment: MT (threshold inducing urethra-closing response) under transcranial magnetic stimulation in healthy female volunteers; assay type: in vivo, human; conditions: for MT of the urethra-closing response in response to TMS, Mean / Rate of change from baseline of MT of the urethra-closing response in response to TMS, Mean: 40 mg capsule single oral dose
Procedure: The test subjects were healthy female volunteers having a body weight of at least 45 kg (average: 50.91 kg, standard deviation: 3.346) and a BMI value of 18.5 kg/m^2 to 25.0 kg/m^2 (average: 19.57 kg/m^2, standard deviation: 0.929).
A washout period of at least 7 days was provided between the treatments.
A capsule containing 40 mg of duloxetine was orally administered as duloxetine together with water. A placebo capsule containing saccharose and spherical starch granules was orally administered as a placebo for duloxetine together with water.
Specifically, during the TMS, the output of a magnetic stimulator (Magstim Rapid Square, manufactured by Magstim Co., Ltd.) was increased by 5% each time using 110 mm double cone coil, and the minimum output at which urethra-closing response occurred abruptly was determined and used as MT (%). The urethra-closing response was detected by measuring contractile responses within the urethra. The contractile response within the urethra was measured using Duet Logic G2 (manufactured by Mediwatch Ltd.) and UniTip (manufactured by Unisensor AG). MT was measured again after administration of each drug, and the rate of change (%) from the baseline was calculated. The rate of change was determined by dividing MT after administration of each drug by MT before administration.

[5] = test system: urethra-closing reflex response; experiment: Urethra-closing reflex response induced by intravesical pressure rise in rats; assay type: in vivo, rat; conditions: 20 mg/kg i.d., mean ± SEM
Procedure: Thirty-two female rats of SD strain were used. The rats were anesthetized with urethane. Isoflurane inhalation was added during the surgery, if necessary. Their spinal cord was transected at the T8-T9 (the eighth thoracic cord—the ninth thoracic cord) level to eliminate the reflex voiding and to inhibit the transition from the urine storage phase to the voiding phase in the voiding cycle. After opening of the abdomen, the bladder neck was ligated with suture, and a catheter (PE-100) was inserted into the bladder. The bladder catheter was connected to a pressure transducer and a saline-containing reservoir via three-way stopcocks. A microtip transducer catheter was inserted from the urethral orifice toward the bladder so that its transducer was inserted into the urethra. Local change in pressure within the urethra (intraurethral pressure) was recorded via an electric signal amplifier and an analog-to-digital converter. […] Then, the reservoir was brought back to the original position to adjust the intravesical pressure to its baseline. Such change in intraurethral pressure induced by intravesical pressure rise was repeatedly measured, and the mean value from the last 2 trials was used as a Pre value. The vehicle used was 0.5% MC. […] Thirty minutes after administration, the change in intraurethral pressure induced by intravesical pressure rise was measured again and used as a Post value. The average value before intravesical pressure rise was subtracted from the average value during intravesical pressure rise, and the subtracted value was used as urethra-closing reflex response. The ratio of the Post value to the Pre value was calculated.

[6] = test system: urethral resistance increasing effect of Compound A′; experiment: Influence of antagonists (SB 242084, methiothepin) on urethral resistance increasing effect of Compound A′ in rats; assay type: in vivo, rat; conditions: mean ± SEM; for LPP Increase: Post minus Pre; for LPP Pre: before administration
Procedure: Ninety female rats of SD strain were used. […] Isoflurane inhalation was added during the surgery, if necessary. In the experiment with intrathecal administration, the dura mater was exposed by laminectomy and then partially opened by incision, through which a catheter (PE-10) filled with saline was then implanted at the level of the L6-S1 site, followed by the closing of the incision. After opening of the abdomen, a catheter (PE-90) was inserted into the bladder. In order to secure reduced urethral resistance, unilateral nerve to iliococcygeus and pubococcygeus muscles was transected. For intraduodenal administration, another catheter (PE-50) was inserted into the duodenum in advance. The abdominal muscle and skin were each closed with sutures. Two (right and left) sites of abdominal skin near the diaphragm were cut to expose abdominal muscle. The bladder was emptied through the catheter, followed by the injection of 0.2 to 0.3 mL of Evans blue solution. Change in intravesical pressure was recorded using the bladder catheter via a pressure transducer, an electric signal amplifier, and an analog-to-digital converter. While change in intravesical pressure was recorded, the presence or absence of fluid leakage from the urethral orifice was observed under the electrical stimulation of the exposed abdominal muscle using an electrical stimulator and an isolator. […] The peak of the intravesical pressure during the stimulation of the abdominal muscle was measured, and the lowest pressure at which the fluid leakage was observed among the trials was defined as LPP for the electrical abdominal muscle stimulation method. In order to examine whether the urethral resistance increasing effect of Compound A′ is based on its agonistic potency on 5-HT2C receptors, SB 242084, methiothepin, or a vehicle was intravenously administered, and Compound A′ or a vehicle was intraduodenally administered 5 minutes later. SB 242084 was dissolved in a mixed solution of N,N-dimethylacetamide and polyethylene glycol 400 (1:1) and administered at 0.03 mg/0.5 mL/kg, 0.1 mg/0.5 mL/kg and 0.3 mg/0.5 mL/kg. Methiothepin was dissolved in saline and administered at 0.03 mg/0.5 mL/kg. 0.1 mg/0.5 mL/kg and 0.3 mg/0.5 mL/kg. Compound A′ was suspended in 0.5% MC and administered at 3 mg/mL/kg. LPP was measured again 30 minutes after Compound A′ administration. In order to examine where Compound A′ works in the body to increase urethral resistance, the blocking of the effect of Compound A′ was confirmed by blocking the functions of Compound A′ by giving methiothepin at a particular site in the body. Particularly, in the experiment with intrathecal administration, methiothepin or a vehicle was intrathecally administered, and Compound A′ or a vehicle was intraduodenally administered 5 minutes later. Methiothepin was dissolved in saline and 20 μL of the obtained solution was administered. Compound A′ was suspended in 0.5% MC and administered at 3 mg/mL/kg. LPP was measured again 30 minutes after Compound A′ administration.
Regarding change in LPP before and after drug administration, the differences between the mean values of the Compound A′-treated and vehicle-treated groups were analyzed by the Student's t test or the Welch's test. In order to analyze the influence of the antagonists on the effect of Compound A′, the differences between the mean values of the SB 242084- or methiothepin- and Compound A′-administered group and the vehicle- and Compound A′-administered group were analyzed by the one-tailed Williams' test.

[7] = cited from earlier work
[8] = Plasma concentrations in rats 30 minutes after oral administration (effective plasma concentration at LPP10); conditions: rat
Procedure: Ten female rats of SD strain were anesthetized with isoflurane. In order to secure the same conditions as those for drug-administered animals, their spinal cord was transected at the T8-T9 (the eighth thoracic cord—the ninth thoracic cord) level. Then, a cannula for blood collection was inserted into the femoral artery. […] These drugs were each dissolved in 0.5% MC. Thirty minutes after oral administration, up to 250 μL of blood was collected from the femoral artery or the tail vein and treated with heparin. The collected blood was immediately cooled on ice and centrifuged under conditions involving 3,000 rpm and 4° C. for 10 minutes to obtain plasma. The plasma samples were stored under conditions of −80° C. until drug quantification.
After thawing of the plasma samples, the internal standard compound was added thereto, and the mixture was then centrifuged under conditions of 5,250 rpm. The drug contained in 60 μL of the supernatant was quantified by LC-MS/MS.

[9] = methiothepin 10 μg intrathecal + Compound A′ 3 mg/kg i.d.
[10] = methiothepin 30 μg intrathecal + Compound A′ 3 mg/kg i.d.
[11] = methiothepin 0.03 mg/kg i.v. + Compound A′ 3 mg/kg i.d.
[12] = methiothepin 100 μg intrathecal + Compound A′ 0 mg/kg i.d.
[13] = methiothepin 100 μg intrathecal + Compound A′ 3 mg/kg i.d.
[14] = methiothepin 0.1 mg/kg i.v. + Compound A′ 3 mg/kg i.d.
[15] = methiothepin 0.3 mg/kg i.v. + Compound A′ 0 mg/kg i.d.
[16] = methiothepin 0.3 mg/kg i.v. + Compound A′ 3 mg/kg i.d.

CNCC[C@H](Oc1cccc2ccccc12)c1cccs1 [Duloxetine, duloxetine hydrochloride]
LPP Post ([1]; 5 mg/kg p.o.): 64.1 ± 5.5 cmH2O | LPP Increase ([1]; 5 mg/kg p.o.): 4.2 ± 1.7 cmH2O | LPP Pre ([1]; 5 mg/kg p.o.): 59.9 ± 5.1 cmH2O | LPP Post ([1]; 10 mg/kg p.o.): 67.6 ± 3.5 cmH2O | LPP Increase ([1]; 10 mg/kg p.o.): 7.7 ± 2.2 cmH2O | LPP Pre ([1]; 10 mg/kg p.o.): 59.8 ± 3.8 cmH2O | LPP Post ([1]; 20 mg/kg p.o.): 69.8 ± 4.0 cmH2O | LPP Increase ([1]; 20 mg/kg p.o.): 11.9 ± 3.7 cmH2O | LPP Pre ([1]; 20 mg/kg p.o.): 57.9 ± 2.7 cmH2O | LPP Post ([1]; 40 mg/kg p.o.): 73.3 ± 5.3 cmH2O | LPP Increase ([1]; 40 mg/kg p.o.): 13.1 ± 2.9 cmH2O | LPP Pre ([1]; 40 mg/kg p.o.): 60.2 ± 3.1 cmH2O | LPP Post ([2]; 5 mg/kg i.d.): 38.3 ± 2.7 cmH2O | LPP Increase ([2]; 5 mg/kg i.d.): 1.7 ± 1.4 cmH2O | LPP Pre ([2]; 5 mg/kg i.d.): 36.6 ± 3.0 cmH2O | LPP Post ([2]; 10 mg/kg i.d.): 39.1 ± 2.9 cmH2O | LPP Increase ([2]; 10 mg/kg i.d.): 3.7 ± 2.3 cmH2O | LPP Pre ([2]; 10 mg/kg i.d.): 35.3 ± 3.0 cmH2O | LPP Post ([2]; 20 mg/kg i.d.): 46.6 ± 5.7 cmH2O | LPP Increase ([2]; 20 mg/kg i.d.): 9.7 ± 3.5 cmH2O | LPP Pre ([2]; 20 mg/kg i.d.): 36.9 ± 2.8 cmH2O | maximal urethral resistance increasing effect (LPP elevation) in rats ([3]; summary of Examples 2 and 5): around 10 cmH2O | MT of the urethra-closing response in response to TMS, Mean ([4]; 0.5 hr): 67.4% | Rate of change from baseline of MT of the urethra-closing response in response to TMS, Mean ([4]; 0.5 hr): −0.4% | MT of the urethra-closing response in response to TMS, Mean ([4]; 2 hr): 62.0% | Rate of change from baseline of MT of the urethra-closing response in response to TMS, Mean ([4]; 2 hr): −5.9% | MT of the urethra-closing response in response to TMS, Mean ([4]; 6 hr): 56.4% | Rate of change from baseline of MT of the urethra-closing response in response to TMS, Mean ([4]; 6 hr): −11.8% | MT of the urethra-closing response in response to TMS, Mean ([4]; Predose): 67.8% | maximum change from baseline in MT in response to TMS ([4]; 40 mg group, at 6 hours post dose): −11.8% | Urethra-closing reflex response Post ([5]; 30 minutes after administration, intravesical pressure rise by 50 cm H2O): 8.66 ± 1.34 cmH2O | Urethra-closing reflex response Pre ([5]; before administration, intravesical pressure rise by 50 cm H2O): 4.88 ± 0.86 cmH2O | Urethra-closing reflex response Ratio (Post/Pr) ([5]; ratio of Post value to Pre value): 2.00 ± 0.28

CSc1ccc2c(c1)C(N1CCN(C)CC1)Cc1ccccc1S2.O=C(O)/C=C\C(=O)O (stereo not shown) [methiothepin, methiothepin maleate]
LPP Post ([6]; methiothepin 10 μg intrathecal + Compound A′ 3 mg/kg i.d., 30 minutes after Compound A′): 69.4 ± 10.4 cmH2O | LPP Increase [6, 9]: 35.3 ± 9.8 cmH2O | LPP Pre [6, 9]: 34.1 ± 3.2 cmH2O | LPP Post ([6]; methiothepin 30 μg intrathecal + Compound A′ 3 mg/kg i.d., 30 minutes after Compound A′): 52.1 ± 8.6 cmH2O | LPP Increase [6, 10]: 11.1 ± 6.5 cmH2O | LPP Pre [6, 10]: 41.0 ± 3.6 cmH2O | LPP Increase [6, 11]: 17.9 ± 4.3 cmH2O | LPP Pre [6, 11]: 44.4 ± 2.5 cmH2O | LPP Post ([6]; methiothepin 100 μg intrathecal + Compound A′ 0 mg/kg i.d., 30 minutes after i.d. administration): 40.5 ± 3.2 cmH2O | LPP Increase [6, 12]: −5.3 ± 3.0 cmH2O | LPP Pre [6, 12]: 45.8 ± 4.8 cmH2O | LPP Post ([6]; methiothepin 100 μg intrathecal + Compound A′ 3 mg/kg i.d., 30 minutes after Compound A′): 45.9 ± 5.5 cmH2O | LPP Increase [6, 13]: 5.6 ± 3.5 cmH2O | LPP Pre [6, 13]: 40.4 ± 3.0 cmH2O | LPP Post ([6]; methiothepin 0.1 mg/kg i.v. + Compound A′ 3 mg/kg i.d., 30 minutes after Compound A′): 59.9 ± 3.7 cmH2O | LPP Increase [6, 14]: 9.5 ± 3.3 cmH2O | LPP Pre [6, 14]: 50.4 ± 4.4 cmH2O | LPP Post ([6]; methiothepin 0.3 mg/kg i.v. + Compound A′ 0 mg/kg i.d., 30 minutes after i.d. administration): 44.0 ± 7.1 cmH2O | LPP Increase [6, 15]: −2.0 ± 2.5 cmH2O | LPP Pre [6, 15]: 46.0 ± 9.6 cmH2O | LPP Post ([6]; methiothepin 0.3 mg/kg i.v. + Compound A′ 3 mg/kg i.d., 30 minutes after Compound A′): 40.6 ± 4.9 cmH2O | LPP Increase [6, 16]: −2.2 ± 2.9 cmH2O | LPP Pre [6, 16]: 42.9 ± 3.8 cmH2O

C[C@H]1CNCCc2ccc(Cl)cc21 [Compound B, (R)-8-chloro-1-methyl-2,3,4,5-tetrahydro-1H-3-benzazepine]
average plasma concentration in a day (steady state) giving a body weight lowering effect greater than placebo by 3.8% in humans ([7]; 10 mg b.i.d. (launched dose), free form): 43 ng/mL | average plasma concentration in a day (steady state) giving a body weight lowering effect greater than placebo by 2.6% in humans ([7]; 10 mg q.d., free form): 24 ng/mL | blood concentration ([7]; after a single administration of a sustained release formulation containing 20 mg): 39 ng/mL | plasma concentration Cmin ([7]; launched dose 10 mg bid): 26 ng/mL | blood concentration ([7]; sustained release formulation containing 20 mg once daily): 74 ng/mL | plasma concentration estimated to show sufficient effects on urethra-closing function in humans ([3]; second analysis: 14-fold lower than 43 ng/mL): around 3 ng/mL | concentration at 30 min ([8]; female, SD, plasma, po, 4 mg/kg): 32.9 ± 18 ng/mL | plasma concentration at LPP10 ([8]; measured concentration multiplied by ratio between dosage used and LPP10): 9.9 ng/mL
